We go through 7 molecules from PubChem BioAssay AID1259411 (Chemical Carcinogenesis Research Information System (CCRIS), 2018).

The test system of the data set is rodent carcinogenicity bioassays, tumor incidence. As to the kind of experiment: CCRIS carcinogenicity studies. Conditions: Dose: 0, Dose: 0. The essentials:
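Archive of carcinogenicity, mutagenicity, tumor promotion and tumor inhibition results drawn from journals, NCI reports and other sources, expert-reviewed; covers 1985-2011 and is no longer updated.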

Active and inactive are the calls of the source. How the calls were made is not given here.

Consider `NC(=O)N(CCCO)N=O`, for which the carcinogen call (Species: RAT, Strain/Sex: F344/FEMALE, Route: GAVAGE, 8 MG/ML (TOTAL DOSE 0; 0.9 MMOL) IN 2 ML ETHYL ACETATE AND CORN OIL (1:2) 2/WK FOR 40 WK (STUDY DURATION: LIFETIME), 8 MG/ML (TOTAL DOSE 0; 0.9 MMOL) IN 2 ML ETHYL ACETATE AND CORN OIL (1:2) 2/WK FOR 40 WK (STUDY DURATION: LIFETIME), Tumor Site: Type of Lesion: THYROID: C-CELL TUMOR) was “active; positive”; the carcinogen call (Species: RAT, Strain/Sex: F344/FEMALE, Route: GAVAGE, 8 MG/ML IN 0.2 ML ETHYL ACETATE AND CORN OIL 2/WK FOR 40 WK (STUDY DURATION: LIFESPAN), Tumor Site: Type of Lesion: THYROID: C-CELL TUMOR, UTERUS: TUMOR) is “active; positive”; the carcinogen call (Species: RAT, Strain/Sex: F344/FEMALE, Route: GAVAGE, 16 MG/ML (TOTAL DOSE 0; 1.3 MMOL) IN 2 ML ETHYL ACETATE AND CORN OIL (1:2) 2/WK FOR 30 WK (STUDY DURATION: LIFETIME), 16 MG/ML (TOTAL DOSE 0; 1.3 MMOL) IN 2 ML ETHYL ACETATE AND CORN OIL (1:2) 2/WK FOR 30 WK (STUDY DURATION: LIFETIME)) is “inactive; negative”; the carcinogen call (Species: RAT, Strain/Sex: F344/FEMALE, Route: GAVAGE, 16 MG/ML IN 0.2 ML ETHYL ACETATE AND CORN OIL 2/WK FOR 30 WK (STUDY DURATION: LIFESPAN), Tumor Site: Type of Lesion: LIVER: TUMOR, FORESTOMACH: TUMOR, THYROID: C-CELL TUMOR, UTERUS: TUMOR, DUODENUM: TUMOR, Tumor Site: Type of Lesion: LIVER: TUMOR, FORESTOMACH: TUMOR, THYROID: C-CELL TUMOR, UTERUS: TUMOR, DUODENUM: TUMOR) was “active; positive”; the carcinogen call (Species: RAT, Strain/Sex: F344/MALE, Route: GAVAGE, 8 MG/ML (TOTAL DOSE 0; 0.9 MMOL) IN 2 ML ETHYL ACETATE AND CORN OIL (1:2) 2/WK FOR 40 WK (STUDY DURATION: LIFETIME), 8 MG/ML (TOTAL DOSE 0; 0.9 MMOL) IN 2 ML ETHYL ACETATE AND CORN OIL (1:2) 2/WK FOR 40 WK (STUDY DURATION: LIFETIME)) was “inactive; negative”; the carcinogen call (Species: RAT, Strain/Sex: F344/MALE, Route: GAVAGE, 8 MG/ML IN 0.2 ML ETHYL ACETATE AND CORN OIL 2/WK FOR 40 WK (STUDY DURATION: LIFESPAN), Tumor Site: Type of Lesion: FORESTOMACH: TUMOR) is “active; positive”. Besides, the carcinogen call by setting is: (Species: RAT, Strain/Sex: F344/MALE, Route: GAVAGE, 16 MG/ML (TOTAL DOSE 0; 1.3 MMOL) IN 2 ML ETHYL ACETATE AND CORN OIL (1:2) 2/WK FOR 30 WK (STUDY DURATION: LIFETIME), 16 MG/ML (TOTAL DOSE 0; 1.3 MMOL) IN 2 ML ETHYL ACETATE AND CORN OIL (1:2) 2/WK FOR 30 WK (STUDY DURATION: LIFETIME)) “inactive; negative”; (Species: RAT, Strain/Sex: F344/MALE, Route: GAVAGE, 16 MG/ML IN 0.2 ML ETHYL ACETATE AND CORN OIL 2/WK FOR 30 WK (STUDY DURATION: LIFESPAN), Tumor Site: Type of Lesion: LUNG: TUMOR, GLANDULAR STOMACH: TUMOR, SKIN: TUMOR, Tumor Site: Type of Lesion: LUNG: TUMOR, GLANDULAR STOMACH: TUMOR, SKIN: TUMOR) “active; positive”.

Turning to `Cc1ccc(N=CN(C)C=Nc2ccc(C)cc2C)c(C)c1`, the carcinogen call by setting is: (Species: Mouse, Strain/Sex: B6C3F1/Female, Route: Oral (diet), 25, 100, 400 ppm in feed for 104 wks, 25, 100, 400 ppm in feed for 104 wks, Tumor Site: Type of Lesion: Liver: Hepatocellular adenoma/carcinoma (5/80, 1/61, 3/62, 24/56)) “active; positive (at highest dose)”; (Species: Mouse, Strain/Sex: B6C3F1/Male, Route: Oral (diet), 25, 100, 400 ppm in feed for 104 wks, 25, 100, 400 ppm in feed for 104 wks) “inactive; negative”; (Species: Rat, Strain/Sex: Wistar/Female, Route: Oral (diet), 15, 50, 200 ppm in feed for 104 wks, 15, 50, 200 ppm in feed for 104 wks) “inactive; negative; purity 97.8 and 99.8%”; (Species: Rat, Strain/Sex: Wistar/Male, Route: Oral (diet), 15, 50, 200 ppm in feed for 104 wks, 15, 50, 200 ppm in feed for 104 wks) “inactive; negative; purity 97.8 and 99.8%”.

With `O[C@H]1C=Cc2c(ccc3cccnc23)[C@@H]1O`, the carcinogen call by setting is: (Species: MOUSE, Strain/Sex: CD-1/FEMALE, Route: INTRAPERITONEAL, 5, 10 AND 20 µL OF A 0.05 MOLAR SOLUTION ON DAYS 1, 8 AND 15 OF LIFE RESPECTIVELY (TOTAL DOSE: 1.75 UMOL) (STUDY DURA, 5, 10 AND 20 µL OF A 0.05 MOLAR SOLUTION ON DAYS 1, 8 AND 15 OF LIFE RESPECTIVELY (TOTAL DOSE: 1.75 UMOL) (STUDY DURA) “inactive; negative”; (Species: MOUSE, Strain/Sex: CD-1/MALE, Route: INTRAPERITONEAL, 5, 10 AND 20 µL OF A 0.05 MOLAR SOLUTION ON DAYS 1, 8 AND 15 OF LIFE RESPECTIVELY (TOTAL DOSE: 1.75 UMOL) (STUDY DURA, 5, 10 AND 20 µL OF A 0.05 MOLAR SOLUTION ON DAYS 1, 8 AND 15 OF LIFE RESPECTIVELY (TOTAL DOSE: 1.75 UMOL) (STUDY DURA) “inactive; negative”.

Take `Cc1cccc(C)c1NC(=O)CN1CCCC1=O`: the carcinogen call is “inactive; negative” (Species: MOUSE, Strain/Sex: B6C3F1/FEMALE, Route: ORAL, 30, 90, 270 MG/KG/D IN DIET FOR 104 WK (STUDY DURATION: 104 WK), 30, 90, 270 MG/KG/D IN DIET FOR 104 WK (STUDY DURATION: 104 WK)); “inactive; negative” (Species: MOUSE, Strain/Sex: B6C3F1/MALE, Route: ORAL, 30, 90, 270 MG/KG/D IN DIET FOR 104 WK (STUDY DURATION: 104 WK), 30, 90, 270 MG/KG/D IN DIET FOR 104 WK (STUDY DURATION: 104 WK)); “inactive; negative” (Species: RAT, Strain/Sex: F344/FEMALE, Route: ORAL, 200, 600, 1800 PPM IN DIET FOR 104 WK (STUDY DURATION: 104 WK), 200, 600, 1800 PPM IN DIET FOR 104 WK (STUDY DURATION: 104 WK)); “inactive; negative” (Species: RAT, Strain/Sex: F344/MALE, Route: ORAL, 200, 600, 1800 PPM IN DIET FOR 104 WK (STUDY DURATION: 104 WK), 200, 600, 1800 PPM IN DIET FOR 104 WK (STUDY DURATION: 104 WK)).

Regarding `Nc1ccc(-c2ccc(F)cc2)cc1`, the carcinogen call by setting is: (Species: MOUSE, Strain/Sex: CBA/FEMALE, Route: GAVAGE, 0.05 ML OF 1% IN ARACHIS OIL 2/WK FOR 6 MO FOR AN ESTIMATED TOTAL DOSE OF 0, 13 MG (STUDY DURATION: 119 WK), 0.05 ML OF 1% IN ARACHIS OIL 2/WK FOR 6 MO FOR AN ESTIMATED TOTAL DOSE OF 0, 13 MG (STUDY DURATION: 119 WK), Tumor Site: Type of Lesion: LIVER: HEPATOMA) “active; positive”; (Species: MOUSE, Strain/Sex: CBA/MALE, Route: GAVAGE, 0.05 ML OF 1% IN ARACHIS OIL 2/WK FOR 6 MO FOR AN ESTIMATED TOTAL DOSE OF 0, 13 MG (STUDY DURATION: 109 WK), 0.05 ML OF 1% IN ARACHIS OIL 2/WK FOR 6 MO FOR AN ESTIMATED TOTAL DOSE OF 0, 13 MG (STUDY DURATION: 109 WK), Tumor Site: Type of Lesion: LIVER: HEPATOMA) “active; positive”.

Take `N#Cc1cc(Br)c(O)c(Br)c1`: the carcinogen call by setting is: (Species: Mouse, Strain/Sex: Crl:CD-1 (ICR)BR VAF/Plus/Female (60/sex/group), Route: Oral, 20, 75, 300 ppm in feed for 78-80 wk, 20, 75, 300 ppm in feed for 78-80 wk, Tumor Site: Type of Lesion: Liver: Hepatocellular adenoma and carcinoma combined (0 ppm, 2/60; 300 ppm, 7/59)) “active; positive at high dose only; purity 94.4%”; (Species: Mouse, Strain/Sex: Crl:CD-1 (ICR)BR VAF/Plus/Male (60/sex/group), Route: Oral, 20, 75, 300 ppm in feed for 78-80 wk, 20, 75, 300 ppm in feed for 78-80 wk, Tumor Site: Type of Lesion: Liver: Hepatocellular adenoma and carcinoma combined (5/60; 16/60; 12/60; 23/60)) “active; positive; purity 94.4%”.

For the molecule `C=CCN(CC=C)N=O`, the carcinogen call is “active; positive” (Species: RAT, Strain/Sex: BDIX/FEMALE, Route: ORAL, 20, 40, 80 MG/KG IN DRINKING WATER FOR DURATION OF STUDY (STUDY DURATION: LIFE TIME), 20, 40, 80 MG/KG IN DRINKING WATER FOR DURATION OF STUDY (STUDY DURATION: LIFE TIME), Tumor Site: Type of Lesion: NASAL/PARANASAL CAVITY: TUMORS) and “active; positive” (Species: RAT, Strain/Sex: BDIX/MALE, Route: ORAL, 20, 40, 80 MG/KG IN DRINKING WATER FOR DURATION OF STUDY (STUDY DURATION: LIFE TIME), 20, 40, 80 MG/KG IN DRINKING WATER FOR DURATION OF STUDY (STUDY DURATION: LIFE TIME), Tumor Site: Type of Lesion: NASAL/PARANASAL CAVITY: TUMORS).
